# Test results from paper PMC11831560, “Development of the Pyrido[2,3-d]pyrimidin-7(8H)-one Scaffold toward Potent and Selective NUAK1 Inhibitors” (ACS Medicinal Chemistry Letters, 2025).
# Values joined by “and” are separate entries in the source; they are usually repeats but may differ in a detail not shown here. Equal values may be shown once.
# Tests used:
# [1] = Mouse PK cassette (5 mg/kg, I.P.); details: for Kp uu at 0.5 h: brain / plasma (unbound); for Kp at 0.5 h: brain / plasma; for AUCinf / Plasma t1/2: mouse, I.P., cassette
# Method: (§2) To investigate the effect of increasing mouse microsomal stability on in vivo half-lives, 9, 10 and 24 were coadministered with 3 in a mouse PK cassette (5 mgkg^–1, I.P.) (Table 5).
# ADMET and PK experimental methods
# (§3) Microsomal stability: analysis was performed by Cyprotex Discovery. Briefly, test compounds in
# (§4) microsomes (0.5 mg protein/mL) in the presence of NADPH (1 mM) at 37 °C. Aliquots were taken at
# (§5) generic LC-MS/MS conditions for compound remaining, allowing the determination of the half-life for
# (§6) MDR1-MDCK Permeability (bi-directional): was performed by Cyprotex Discovery. Briefly,
# (§7) compounds were administered at 10 µM (1% DMSO final) to the apical or basolateral side of a
# (§8) confluent monolayer of MDR1- MDCK cells, then incubated at 37 °C for 60 minutes before appearance
# (§9) on the opposite side of the monolayer was determined LC-MS/MS. The efflux ratio (ER) is calculated
# (§10) from the ratio of B-A to A-B permeabilities.
# (§11) Plasma protein binding: was performed by ChemPartner Co. Ltd. Briefly, compounds in DMSO (1
# (§12) µM, 0.2% DMSO final) were added to mouse plasma or brain tissue and dialysed against buffer for 5
# (§13) hrs at 37 °C. The compound concentration in each of the plasma and buffer compartments was
# (§14) determined by mass spectrometry and used to calculate the percentage compound bound.
# (§15) Pharmacokinetic analysis: was performed by ChemPartner Co. Ltd. Male CD-1 mice (N=3 per
# (§16) timepoint) were intraperitoneally dosed at 5 mg/kg, as a cassette of five compounds, formulated in 10%
# (§17) DMSO, 10% Solutol HS 15, 80% (50 mM citrate buffer pH3.0) at 0.5 mg/mL. At the designated time
# (§18) points a blood sample was collected from the facial vein into K2EDTA tubes, and plasma separated by
# (§19) centrifugation. Mice were euthanised by CO2 inhalation and brains were dissected and homogenised.
# (§20) Compound levels were quantified by LC-MS/MS and PK parameters estimated by a non-compartmental
# model using WinNonlin 8.2.
# MARK4 = target: T1, MARK4 (Homo sapiens, UniProt Q96L34); test: ADP-Glo biochemical assay MARK4; details: for MARK4 pIC50 / IC50: ADP-Glo assay; for IC50: read-out: MARK4 pIC50 (converted)
# T1 construct: purchased MRC PPU
# T1 sequence (Q96L34 1-752): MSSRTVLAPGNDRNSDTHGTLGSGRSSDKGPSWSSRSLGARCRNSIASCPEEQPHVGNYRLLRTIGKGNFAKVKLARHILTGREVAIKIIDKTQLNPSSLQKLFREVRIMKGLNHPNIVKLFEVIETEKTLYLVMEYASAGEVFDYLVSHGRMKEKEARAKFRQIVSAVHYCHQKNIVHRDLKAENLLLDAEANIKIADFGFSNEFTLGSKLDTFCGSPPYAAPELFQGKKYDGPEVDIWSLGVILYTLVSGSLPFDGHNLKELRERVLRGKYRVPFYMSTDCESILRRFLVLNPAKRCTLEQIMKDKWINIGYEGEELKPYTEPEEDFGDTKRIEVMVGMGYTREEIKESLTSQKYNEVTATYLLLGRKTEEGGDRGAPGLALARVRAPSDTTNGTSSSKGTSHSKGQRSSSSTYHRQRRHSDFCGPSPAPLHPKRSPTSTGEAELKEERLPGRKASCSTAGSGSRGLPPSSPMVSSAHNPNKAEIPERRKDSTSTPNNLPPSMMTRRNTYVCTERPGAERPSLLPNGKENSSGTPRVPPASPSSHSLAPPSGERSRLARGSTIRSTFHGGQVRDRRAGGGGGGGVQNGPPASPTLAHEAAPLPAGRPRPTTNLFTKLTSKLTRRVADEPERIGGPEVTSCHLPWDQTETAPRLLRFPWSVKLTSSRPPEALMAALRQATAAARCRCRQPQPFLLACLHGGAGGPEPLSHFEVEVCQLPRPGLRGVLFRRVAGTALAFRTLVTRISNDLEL
# Method: Biological experimental procedures
# ADP-Glo biochemical assays
# Protein kinase activity in the presence of inhibitor compounds was determined by ADP-Glo assay (Promega), as previously described.1,2 Compounds were serialised using a Labcyte Echo 520 and transferred to 384 well plates (Greiner 784201) followed by the addition 5 µL of substrate containing peptide and ATP at Km in buffer (see Table S6). 5 µL of purified protein was added and the plate was incubated for 60 minutes at room temperature (ng/well; see Table S6). 3 µL of assay mixture was transferred using an Integra Viaflo384 into a white low volume plate (Greiner 781904) prior to the addition of 3 µL of ADP-Glo Reagent™ for a further 40 minute incubation. After incubation with 6 µL of Kinase Detection Reagent for 30 minutes, plate luminescence was read (Pherastar FSX, BMG […]
# 30 mM HEPES pH7.4, 3 mM MgCl2, 3 mM MnCl2, 1.2 mM DTT, 0.01% CHAPS
# Table S6: Conditions for protein kinase ADP-Glo assays
# ATP AT Peptide Peptide Enzyme Enzyme Assay Buffe Min.
# Protein conc. P Peptide name conc. supplier amount supplier vol. r na […]
# NUAK1 µM µM Sakamototide 50 µM Merck 6.7 ng PPU 10 µl A 6
# A µM µM Sakamototide 100 µM Merck 1 ng PPU 10 µl B 2 […]
# aMin. n: Minimum number of technical replicates per compound
# MDR1 (P-gp) = test: MDR1-MDCK permeability (bi-directional); assay type: in vitro ADME, canine; details: dog; for efflux ratio at 1 h, 10 µM / efflux ratio at 60 min, 10 µM: MDCK-MDR1, ratio of B-A to A-B permeabilities, read-out: MDCK ER (efflux ratio); for Papp at 60 min, 10 µM: MDR1-MDCK
# Source text: (§1) All single point assay determinations carried out in duplicate.
# Brain protein binding = assay type: in vitro ADME; details: mouse brain tissue, read-out: BPB Fu
# Source text: as §1
# in vivo = details: male, CD-1, mouse, ip, 5 mg/kg
# Method: as §2
# ADMET and PK experimental methods
# as §3, §4, §5, §6, §7, §8, §9, §10, §11, §12, §13, §14, §15, §16, §17, §18, §19, §20
# model using WinNonlin 8.2.
# Plasma protein binding = assay type: in vitro ADME; details: mouse plasma, read-out: PPB Fu
# Source text: as §1
SMILES,"Kp uu at 0.5 h ([1]; male, CD-1, mouse, ip)","Kp at 0.5 h ([1]; male, CD-1, mouse, ip)","concentration at 30 min ([1]; male, CD-1, mouse, brain, ip)","concentration at 2 h ([1]; male, CD-1, mouse, brain, ip)",AUCinf [1],Plasma t1/2 [1],MARK4 pIC50 (MARK4),MARK4 Fold selectivity IC50/NUAK1 IC50 (MARK4),"efflux ratio at 1 h, 10 µM (MDR1 (P-gp))","Papp at 60 min, 10 µM (MDR1 (P-gp))","fraction unbound at 5 h, 1 µM (Brain protein binding)",IC50 (MARK4),concentration at 30 min (in vivo),concentration at 2 h (in vivo),"fraction unbound at 5 h, 1 µM (Plasma protein binding)","efflux ratio at 60 min, 10 µM (MDR1 (P-gp))"
"CN1CCN(c2ccc(Nc3ncc4cc(C#N)c(=O)n(C5CCCC5)c4n3)cc2)CC1 [Compound 3, Narazaciclib, reference compound]",0.29,1.9,1160 ng/mL,181 ng/mL,897 ng·h/mL,54 min,5.02 and 5.0,363 fold,5.6,1.98 ×10⁻⁶ cm/s,0.012,–,–,–,–,–
Cc1cc(=O)n(C2CCCC2)c2nc(Nc3ccc(N4CCN(C)CC4)cc3)ncc12 [Compound 4],–,–,–,–,–,–,5.4,871 fold,–,–,–,–,–,–,–,–
CC(C)N1CCN(c2ccc(Nc3ncc4c(n3)N(C3CCCC3)C(=O)C4)cc2)CC1 [Compound 7],–,–,–,–,–,–,5.19 and 5.2,1549 fold,–,–,–,–,–,–,–,–
CC(C)N1CCN(c2ccc(Nc3ncc4ccn(C5CCCC5)c4n3)cc2)CC1 [Compound 8],–,–,–,–,–,–,5.6,513 fold,–,–,–,2340 nM,–,–,–,–
Cc1cc(=O)n(C2CCCC2)c2nc(Nc3ccc(N4CC5CC(C4)N5C)cc3)ncc12 [Compound 9],0.4,0.8,–,–,1358 ng·h/mL,54 min,–,–,4.8,1.01 ×10⁻⁶ cm/s,0.006,–,573 ng/mL,176 ng/mL,0.011,–
CN1C2CC1CN(c1ccc(Nc3ncc4cc(C#N)c(=O)n(C5CCCC5)c4n3)cc1)C2 [Compound 10],0.37,0.7,–,–,1131 ng·h/mL,66 min,–,–,50,1.24 ×10⁻⁶ cm/s,0.01,–,293 ng/mL,146 ng/mL,0.019,49.5
CN1C2CC1CN(c1ccc(Nc3ncc4ccn(CC5CCOCC5)c4n3)cc1)C2 [Compound 24],0.52,0.9,–,–,365 ng·h/mL,42 min,4.9,3981 fold,71,1.05 ×10⁻⁶ cm/s,0.09,–,220 ng/mL,26.9 ng/mL,0.152,70.8
CC(C)N1CCN(c2ccc(Nc3ncc4ccn(CC5CCOC(C)(C)C5)c4n3)cc2)CC1 (centres unmarked) [Compound 26],–,–,–,–,–,–,–,> 4700 fold,–,–,–,> 25100 nM,–,–,–,–
CC(C)N1CCN(c2ccc(Nc3ncc4ccn(CC5CCCO5)c4n3)cc2)CC1 (centres unmarked) [Compound 27],–,–,–,–,–,–,–,776 fold,–,–,0.039,2630 nM,–,–,–,–
CN1C2CC1CN(c1ccc(Nc3ncc4ccn(CC5CCCO5)c4n3)cc1)C2 (centres unmarked) [Compound 28],–,–,–,–,–,–,–,1175 fold,–,–,–,6460 nM,–,–,–,–
